Experimental data published in ChEMBL document CHEMBL1201862, “PubChem BioAssay data set” (2004).
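The compound was tested at five concentrations on cells cultured in 96-well plates, with a 48-hour exposure period. Here, GI50 denotes the concentration required for 50% inhibition of growth.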 Calls of active or inactive are those of the source. Rule as the data show it: active = GI50 up to about 1.1 µM and inactive = higher.

Assays:
Experiment in all cases: NCI-60 cell line screen, 48 h
786-0 = tested on: 786-0
A498 = tested on: A498
A549 = tested on: A549
ACHN = tested on: ACHN
BT-549 = tested on: BT-549
CAKI-1 = tested on: CAKI-1
CCRF-CEM = tested on: CCRF-CEM
COLO 205 = tested on: COLO 205
DU-145 = tested on: DU-145
EKVX = tested on: EKVX
HCC 2998 = tested on: HCC 2998
HCT-116 = tested on: HCT-116
HCT-15 = tested on: HCT-15
HL-60 = tested on: HL-60
HOP-62 = tested on: HOP-62
HOP-92 = tested on: HOP-92
HT-29 = tested on: HT-29
Hs-578T = tested on: Hs-578T
IGROV-1 = tested on: IGROV-1
K562 = tested on: K562
KM12 = tested on: KM12
M14 = tested on: M14
MCF7 = tested on: MCF7
MDA-MB-231 = tested on: MDA-MB-231
MDA-MB-435 = tested on: MDA-MB-435
MDA-N = tested on: MDA-N
MOLT-4 = tested on: MOLT-4
Malme-3M = tested on: Malme-3M
NCI-H226 = tested on: NCI-H226
NCI-H23 = tested on: NCI-H23
NCI-H460 = tested on: NCI-H460
NCI-H522 = tested on: NCI-H522
NCI/ADR-RES = tested on: NCI/ADR-RES
OVCAR-3 = tested on: OVCAR-3
OVCAR-4 = tested on: OVCAR-4
OVCAR-5 = tested on: OVCAR-5
OVCAR-8 = tested on: OVCAR-8
PC-3 = tested on: PC-3
RPMI-8226 = tested on: RPMI-8226
RXF 393 = tested on: RXF 393
SF-268 = tested on: SF-268
SF-295 = tested on: SF-295
SF-539 = tested on: SF-539
SK-MEL-28 = tested on: SK-MEL-28
SK-MEL-2 = tested on: SK-MEL-2
SK-MEL-5 = tested on: SK-MEL-5
SK-OV-3 = tested on: SK-OV-3
SN12C = tested on: SN12C
SNB-19 = tested on: SNB-19
SNB-75 = tested on: SNB-75
SR = tested on: SR
SW-620 = tested on: SW-620
T47D = tested on: T47D
TK-10 = tested on: TK-10
U-251 = tested on: U-251
UACC-257 = tested on: UACC-257
UACC-62 = tested on: UACC-62
UO-31 = tested on: UO-31
LOX IMVI = tested on: LOX IMVI

CC(C)(C)OC(=O)N1CC(COS(C)(=O)=O)c2ccc(O)cc21 (stereo not drawn)
GI50 (786-0): 2.59 µM (inactive) | GI50 (A498): 2.18 µM (inactive) | GI50 (A549): 3.12 µM (inactive) | GI50 (ACHN): 0.684 µM (active) | GI50 (BT-549): 1.52 µM (inactive) | GI50 (CAKI-1): 2.42 µM (inactive) | GI50 (CCRF-CEM): 0.455 µM (active) | GI50 (COLO 205): 1.58 µM (inactive) | GI50 (DU-145): 0.507 µM (active) | GI50 (EKVX): 2.23 µM (inactive) | GI50 (HCC 2998): 0.133 µM (active) | GI50 (HCT-116): 1.95 µM (inactive) | GI50 (HCT-15): 2.46 µM | GI50 (HL-60): 1.24 µM (inactive) | GI50 (HOP-62): 3.3 µM (inactive) | GI50 (HOP-92): 2.52 µM (inactive) | GI50 (HT-29): 3.21 µM (inactive) | GI50 (Hs-578T): 2.46 µM (inactive) | GI50 (IGROV-1): 2.84 µM (inactive) | GI50 (K562): 2.3 µM (inactive) | GI50 (KM12): 2.46 µM (inactive) | GI50 (M14): 1.72 µM (inactive) | GI50 (MCF7): 1.13 µM (inactive) | GI50 (MDA-MB-231): 2.77 µM (inactive) | GI50 (MDA-MB-435): 1.8 µM (inactive) | GI50 (MDA-N): 2.08 µM (inactive) | GI50 (MOLT-4): 0.443 µM (active) | GI50 (Malme-3M): 1.52 µM (inactive) | GI50 (NCI-H226): 1.92 µM (inactive) | GI50 (NCI-H23): 1.14 µM (inactive) | GI50 (NCI-H460): 2.14 µM (inactive) | GI50 (NCI-H522): 1.05 µM (active) | GI50 (NCI/ADR-RES): 1.74 µM (inactive) | GI50 (OVCAR-3): 2.05 µM (inactive) | GI50 (OVCAR-4): 1.18 µM (inactive) | GI50 (OVCAR-5): 2.12 µM (inactive) | GI50 (OVCAR-8): 1.85 µM (inactive) | GI50 (PC-3): 1.73 µM (inactive) | GI50 (RPMI-8226): 0.615 µM (active) | GI50 (RXF 393): 0.288 µM (active) | GI50 (SF-268): 1.72 µM (inactive) | GI50 (SF-295): 2.91 µM (inactive) | GI50 (SF-539): 2.06 µM (inactive) | GI50 (SK-MEL-28): 2.14 µM (inactive) | GI50 (SK-MEL-2): 1.51 µM (inactive) | GI50 (SK-MEL-5): 1.51 µM (inactive) | GI50 (SK-OV-3): 3.15 µM (inactive) | GI50 (SN12C): 2.25 µM (inactive) | GI50 (SNB-19): 2.7 µM (inactive) | GI50 (SNB-75): 1.46 µM (inactive) | GI50 (SR): 0.703 µM (active) | GI50 (SW-620): 2.1 µM (inactive) | GI50 (T47D): 3.05 µM (inactive) | GI50 (TK-10): 3.37 µM (inactive) | GI50 (U-251): 2.51 µM (inactive) | GI50 (UACC-257): 2.29 µM (inactive) | GI50 (UACC-62): 1.73 µM (inactive) | GI50 (UO-31): 1.97 µM (inactive)

COc1cc2c(cc1OC)CN1CCc3ccccc3CC1C2 (stereo not drawn)
GI50 (786-0): 36.3 µM (inactive) | GI50 (A498): 43.3 µM (inactive) | GI50 (A549): 49.7 µM (inactive) | GI50 (ACHN): 22.6 µM (inactive) | GI50 (BT-549): 31.3 µM (inactive) | GI50 (CAKI-1): 42.4 µM (inactive) | GI50 (CCRF-CEM): 36.9 µM (inactive) | GI50 (COLO 205): 25.1 µM (inactive) | GI50 (DU-145): 37.6 µM (inactive) | GI50 (EKVX): 47.3 µM (inactive) | GI50 (HCC 2998): 28.8 µM (inactive) | GI50 (HCT-116): 23.8 µM (inactive) | GI50 (HCT-15): 39.4 µM | GI50 (HL-60): 27.2 µM (inactive) | GI50 (HOP-62): 65.8 µM (inactive) | GI50 (HOP-92): 12.5 µM (inactive) | GI50 (HT-29): 12.6 µM (inactive) | GI50 (Hs-578T): > 100 µM (inactive) | GI50 (IGROV-1): 17.5 µM (inactive) | GI50 (K562): 32.9 µM (inactive) | GI50 (KM12): 33.1 µM (inactive) | GI50 (LOX IMVI): 39 µM (inactive) | GI50 (M14): 30.1 µM (inactive) | GI50 (MCF7): 25.6 µM (inactive) | GI50 (MDA-MB-231): > 100 µM (inactive) | GI50 (MDA-MB-435): 86.5 µM (inactive) | GI50 (MDA-N): 44.1 µM (inactive) | GI50 (MOLT-4): 28.8 µM (inactive) | GI50 (Malme-3M): 25.8 µM (inactive) | GI50 (NCI-H226): 42.1 µM (inactive) | GI50 (NCI-H23): 31.9 µM (inactive) | GI50 (NCI-H460): 26.3 µM (inactive) | GI50 (NCI/ADR-RES): 54.7 µM (inactive) | GI50 (OVCAR-3): 97.5 µM (inactive) | GI50 (OVCAR-4): 16.1 µM (inactive) | GI50 (OVCAR-5): > 100 µM (inactive) | GI50 (OVCAR-8): 44.1 µM (inactive) | GI50 (PC-3): 41.7 µM (inactive) | GI50 (SF-295): 34.6 µM (inactive) | GI50 (SF-539): 34.4 µM (inactive) | GI50 (SK-MEL-28): 63.1 µM (inactive) | GI50 (SK-MEL-2): 34.3 µM (inactive) | GI50 (SK-MEL-5): 27.1 µM (inactive) | GI50 (SK-OV-3): 53.5 µM (inactive) | GI50 (SN12C): 40.7 µM (inactive) | GI50 (SNB-19): 52 µM (inactive) | GI50 (SNB-75): 29 µM (inactive) | GI50 (SR): 0.208 µM (active) | GI50 (SW-620): 37.8 µM (inactive) | GI50 (T47D): 22.5 µM (inactive) | GI50 (TK-10): 13.7 µM (inactive) | GI50 (U-251): 93.1 µM (inactive) | GI50 (UACC-257): 51.4 µM (inactive) | GI50 (UACC-62): 23.6 µM (inactive) | GI50 (UO-31): 22.9 µM (inactive)
